Measurements: paper PMC5766609 (Scientific Reports, 2018)
Like-named read-outs stand apart in the source and are kept apart here. Residues, ends and D or L forms follow the SMILES beside them.

Legend:
[1] = biological target: T1, human GLP-1 receptor (GLP1R) (Homo sapiens, UniProt P43220); test: cAMP assay on CHO-JumpIn cells stably transfected with human GLP-1 receptor (HitHunter cAMP); format: cell-based; settings: Table 2, cAMP accumulation, buffer PBS, 0.1% BSA, 100 μM RO 20-1724, 20% serum, 1 hr at RT, value ± spread, read-out: EC50 GLP1R;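 also: peptides tested as 4-fold serial dilution series, cells exposed 1 hr at RT in the dark, cAMP quantified against a cAMP standard calibration curve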
T1 construct: expressed in transfected cells; host or cells: CHO-JumpIn cells, stably transfected
T1 sequence (P43220 24-463): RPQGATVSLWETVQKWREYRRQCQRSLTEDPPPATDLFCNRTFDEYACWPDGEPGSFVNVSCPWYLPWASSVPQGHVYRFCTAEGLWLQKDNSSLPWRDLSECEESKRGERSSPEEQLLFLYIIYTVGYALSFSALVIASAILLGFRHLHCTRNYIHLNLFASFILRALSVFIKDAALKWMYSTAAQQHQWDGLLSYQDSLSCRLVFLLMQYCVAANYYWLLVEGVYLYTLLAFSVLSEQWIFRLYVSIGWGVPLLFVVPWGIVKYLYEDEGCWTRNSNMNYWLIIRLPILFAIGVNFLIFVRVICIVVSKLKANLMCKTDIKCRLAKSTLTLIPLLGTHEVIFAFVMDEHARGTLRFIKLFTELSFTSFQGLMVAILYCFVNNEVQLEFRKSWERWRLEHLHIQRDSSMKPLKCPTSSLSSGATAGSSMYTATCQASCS
Protocol: (§1) Briefly, a 2 μM solution of peptide was prepared, and 4-fold serial dilutions were made. 150 nL of the above titration was then dispensed into an Optiplate384 using an Echo555. […] The HitHunter® cAMP Assay kit calibration curve was prepared following the manufacturer’s protocol (DiscoveRx-90-0075L). 30,000 cells/well were added to the peptides, spun briefly at 500 rpm for 15 s and incubated at RT in the dark for 1 hr. The assay was developed as per the manufacturer’s instructions. cAMP accumulation due to GLP1R agonism or GCGR agonism was measured using an EnVision platereader (PerkinElmer), and calibrated using the cAMP standard curve. Data were analyzed using Assay Data Analyzer (ADA).

[2] = biological target: T2, human glucagon receptor (GCGR) (Homo sapiens, UniProt P47871); test: cAMP assay on CHO-JumpIn cells stably transfected with human glucagon receptor (HitHunter cAMP); format: cell-based; settings: for EC50: cAMP accumulation, CHO-JumpIn cells with human GCGR, value ± spread;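 as to all read-outs here: peptides tested as 4-fold serial dilutions starting from a 2 µM solution, cells exposed 1 hr at RT in darkness, cAMP quantified against a cAMP standard curve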
T2 construct: expressed in transfected cells; host or cells: CHO-JumpIn cells, stably transfected
T2 sequence (P47871 26-477): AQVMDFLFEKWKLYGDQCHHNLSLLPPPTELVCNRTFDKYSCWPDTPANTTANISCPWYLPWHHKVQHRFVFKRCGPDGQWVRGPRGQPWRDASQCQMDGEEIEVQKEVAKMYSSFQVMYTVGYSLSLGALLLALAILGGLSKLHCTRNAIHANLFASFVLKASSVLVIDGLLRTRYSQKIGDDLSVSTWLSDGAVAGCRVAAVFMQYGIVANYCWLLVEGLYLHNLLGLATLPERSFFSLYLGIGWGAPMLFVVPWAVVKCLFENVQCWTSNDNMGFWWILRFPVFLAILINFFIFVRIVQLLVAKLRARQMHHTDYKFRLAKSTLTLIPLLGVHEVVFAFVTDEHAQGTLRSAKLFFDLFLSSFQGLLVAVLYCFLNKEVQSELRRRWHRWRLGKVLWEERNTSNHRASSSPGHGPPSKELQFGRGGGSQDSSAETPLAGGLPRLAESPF
Protocol: as §1

[3] = Table 2, buffer PBS, 0.1% BSA, 100 μM RO 20-1724, 20% serum, 1 hr at RT, read-out: EC50 GCGR

Structure (SMILES)	EC50 [1]	EC50 [2, 3]	activation of the receptors (in words) ([2]; both receptors (GCGR and GLP1R) not activated)	EC50 ([2]; Table 3, engineered versus parent peptides, read-out: EC50 hGCGR)
CSCC[C@H](NC(=O)[C@H](CC(C)C)NC(=O)[C@H](Cc1c[nH]c2ccccc12)NC(=O)[C@H](CCC(N)=O)NC(=O)[C@@H](NC(=O)[C@H](Cc1ccccc1)NC(=O)[C@H](CC(=O)O)NC(=O)[C@H](Cc1c[nH]c2ccccc12)NC(=O)[C@H](C)NC(=O)[C@H](C)NC(=O)[C@H](CCCNC(=N)N)NC(=O)[C@H](CCC(=O)O)NC(=O)[C@H](CC(=O)O)NC(=O)[C@H](CC(C)C)NC(=O)[C@H](Cc1ccc(O)cc1)NC(=O)[C@H](CCCCN)NC(=O)[C@H](CCCNC(=N)N)NC(=O)[C@H](Cc1ccc(O)cc1)NC(=O)[C@H](CC(=O)O)NC(=O)[C@H](CO)NC(=O)[C@@H](NC(=O)[C@H](Cc1ccccc1)NC(=O)[C@@H](NC(=O)CNC(=O)[C@H](CCC(N)=O)NC(=O)[C@H](CO)NC(=O)[C@@H](N)Cc1c[nH]cn1)[C@@H](C)O)[C@@H](C)O)C(C)C)C(=O)N[C@@H](CC(N)=O)C(=O)N[C@H](C(N)=O)[C@@H](C)O [Peptide 3] (H-HSQGTFTSDYRKYLDERAAWDFVQWLMNT-NH2)	0.427 ± 0.022 nM	1.35 ± 0.173 nM	–	–
CSCC[C@H](NC(=O)[C@H](CO)NC(=O)[C@H](C)N)C(=O)N[C@@H](Cc1ccccc1)C(=O)N[C@H](C(=O)N[C@@H](Cc1ccccc1)C(=O)N[C@@H](Cc1ccccc1)C(=O)N[C@@H](CO)C(=O)N[C@@H](CC(=O)O)C(=O)N[C@@H](Cc1ccc(O)cc1)C(=O)N[C@@H](CO)C(=O)N[C@@H](CCCCN)C(=O)N[C@@H](Cc1ccc(O)cc1)C(=O)N[C@@H](CC(C)C)C(=O)N[C@@H](CC(=O)O)C(=O)N[C@@H](CO)C(=O)N[C@@H](CCCNC(=N)N)C(=O)N[C@@H](CCCNC(=N)N)C(=O)N[C@@H](C)C(=O)N[C@@H](CCC(N)=O)C(=O)N[C@@H](CC(=O)O)C(=O)N[C@@H](Cc1ccccc1)C(=O)N[C@H](C(=O)N[C@@H](CCC(N)=O)C(=O)N[C@@H](Cc1c[nH]c2ccccc12)C(=O)N[C@@H](CC(C)C)C(=O)N[C@@H](CCSC)C(=O)N[C@@H](CC(C)C)C(=O)N[C@H](C(N)=O)[C@@H](C)O)C(C)C)[C@@H](C)O [Peptide 15] (H-ASMFTFFSDYSKYLDSRRAQDFVQWLMLT-NH2; N-terminus assumed)	> 200 nM	> 20 nM	did not activate	–
CC[C@H](C)[C@H](NC(=O)[C@H](Cc1ccc(O)cc1)NC(=O)[C@H](CC(=O)O)NC(=O)[C@H](CO)NC(=O)[C@@H](NC(=O)[C@H](Cc1ccccc1)NC(=O)[C@@H](NC(=O)CNC(=O)[C@H](CCC(N)=O)NC(=O)[C@H](CO)NC(=O)[C@@H](N)Cc1c[nH]cn1)[C@@H](C)O)[C@@H](C)O)C(=O)N[C@@H](CCCCN)C(=O)N[C@@H](CC(C)C)C(=O)N[C@@H](CC(C)C)C(=O)N[C@@H](CC(=O)O)C(=O)N[C@@H](CO)C(=O)N[C@@H](CCCNC(=N)N)C(=O)N[C@@H](CCCNC(=N)N)C(=O)N[C@@H](C)C(=O)N[C@@H](CCC(N)=O)C(=O)N[C@@H](CC(=O)O)C(=O)N[C@@H](Cc1ccccc1)C(=O)N[C@H](C(=O)N[C@@H](CCC(N)=O)C(=O)N[C@@H](Cc1c[nH]c2ccccc12)C(=O)N[C@@H](CC(C)C)C(=O)N[C@@H](CCSC)C(=O)N[C@@H](CC(N)=O)C(=O)N[C@H](C(N)=O)[C@@H](C)O)C(C)C [Peptide 7] (H-HSQGTFTSDYIKLLDSRRAQDFVQWLMNT-NH2)	78.3 ± 93.8 nM	0.301 ± 0.216 nM	–	–
CC(C)C[C@H](NC(=O)[C@H](CC(C)C)NC(=O)[C@H](Cc1c[nH]c2ccccc12)NC(=O)[C@H](CCC(N)=O)NC(=O)[C@@H](NC(=O)[C@H](Cc1ccccc1)NC(=O)[C@H](CC(=O)O)NC(=O)[C@H](CCC(N)=O)NC(=O)[C@H](C)NC(=O)[C@H](CCCNC(=N)N)NC(=O)[C@H](CCCNC(=N)N)NC(=O)[C@H](CO)NC(=O)[C@H](CC(=O)O)NC(=O)[C@H](CC(C)C)NC(=O)[C@H](Cc1ccc(O)cc1)NC(=O)[C@H](CCCCN)NC(=O)[C@H](CO)NC(=O)[C@H](Cc1ccc(O)cc1)NC(=O)[C@H](CC(=O)O)NC(=O)[C@H](CO)NC(=O)[C@@H](NC(=O)[C@H](Cc1ccccc1)NC(=O)[C@@H](NC(=O)CNC(=O)[C@H](CCC(N)=O)NC(=O)[C@H](CO)NC(=O)[C@@H](N)Cc1c[nH]cn1)[C@@H](C)O)[C@@H](C)O)C(C)C)C(=O)N[C@@H](CC(=O)O)C(=O)N[C@@H](CO)C(N)=O [Peptide 35]	0.018 ± 0.001 nM	–	–	–

Second part, the molecule after the results:

EC50 [1]	EC50 [2, 3]	activation of the receptors (in words) ([2]; both receptors (GCGR and GLP1R) not activated)	EC50 ([2]; Table 3, engineered versus parent peptides, read-out: EC50 hGCGR)	Structure (SMILES)
8.96 ± 1.84 nM	> 200 nM	–	–	CSCC[C@H](NC(=O)[C@H](CO)NC(=O)[C@@H](NC(=O)[C@H](CCSC)NC(=O)[C@@H](NC(=O)[C@H](Cc1ccccc1)NC(=O)[C@H](CC(=O)O)NC(=O)[C@H](CCC(N)=O)NC(=O)[C@H](C)NC(=O)[C@H](CCCNC(=N)N)NC(=O)[C@H](CCCNC(=N)N)NC(=O)[C@H](CO)NC(=O)[C@H](CC(=O)O)NC(=O)[C@H](CC(C)C)NC(=O)[C@H](Cc1ccc(O)cc1)NC(=O)[C@H](CCCCN)NC(=O)[C@H](CO)NC(=O)[C@H](Cc1ccc(O)cc1)NC(=O)[C@H](CC(=O)O)NC(=O)[C@H](CO)NC(=O)[C@@H](NC(=O)[C@H](Cc1ccccc1)NC(=O)[C@@H](NC(=O)CNC(=O)[C@H](CCC(N)=O)NC(=O)[C@H](CO)NC(=O)[C@@H](N)Cc1c[nH]cn1)[C@@H](C)O)[C@@H](C)O)C(C)C)[C@@H](C)O)C(=O)N[C@@H](CC(N)=O)C(=O)N[C@H](C(N)=O)[C@@H](C)O [Peptide 26]
> 200 nM	0.029 ± 0.001 nM	–	–	CSCC[C@H](NC(=O)[C@H](CC(C)C)NC(=O)[C@H](Cc1c[nH]c2ccccc12)NC(=O)[C@H](CCC(N)=O)NC(=O)[C@@H](NC(=O)[C@H](Cc1ccccc1)NC(=O)[C@H](CC(=O)O)NC(=O)[C@H](CCC(N)=O)NC(=O)[C@H](C)NC(=O)[C@H](CCCNC(=N)N)NC(=O)[C@H](CCCNC(=N)N)NC(=O)[C@H](CO)NC(=O)[C@H](CC(=O)O)NC(=O)[C@H](CC(C)C)NC(=O)[C@H](Cc1c[nH]c2ccccc12)NC(=O)[C@H](Cc1c[nH]cn1)NC(=O)[C@H](CO)NC(=O)[C@H](Cc1ccc(O)cc1)NC(=O)[C@H](CC(=O)O)NC(=O)[C@H](CO)NC(=O)[C@H](Cc1ccccc1)NC(=O)[C@H](Cc1ccccc1)NC(=O)[C@@H](NC(=O)CNC(=O)[C@H](CCC(N)=O)NC(=O)[C@H](CO)NC(=O)[C@@H](N)Cc1c[nH]cn1)[C@@H](C)O)C(C)C)C(=O)N[C@@H](CC(N)=O)C(=O)N[C@H](C(N)=O)[C@@H](C)O [Peptide 22]
0.018 ± 0.001 nM	0.018 ± 0.005 nM	–	–	CC(C)C[C@H](NC(=O)[C@H](Cc1ccc(O)cc1)NC(=O)[C@H](CCCCN)NC(=O)[C@H](CO)NC(=O)[C@H](Cc1ccc(O)cc1)NC(=O)[C@H](CC(=O)O)NC(=O)[C@H](CO)NC(=O)[C@@H](NC(=O)[C@H](Cc1ccccc1)NC(=O)[C@@H](NC(=O)CNC(=O)[C@H](CCC(N)=O)NC(=O)[C@H](CO)NC(=O)[C@@H](N)Cc1c[nH]cn1)[C@@H](C)O)[C@@H](C)O)C(=O)N[C@@H](CC(=O)O)C(=O)N[C@@H](CO)C(=O)N[C@@H](CCCNC(=N)N)C(=O)N[C@@H](CCCNC(=N)N)C(=O)N[C@@H](C)C(=O)N[C@@H](Cc1c[nH]cn1)C(=O)N[C@@H](CC(=O)O)C(=O)N[C@@H](Cc1ccccc1)C(=O)N[C@H](C(=O)N[C@@H](CCC(N)=O)C(=O)N[C@@H](Cc1c[nH]c2ccccc12)C(=O)N[C@@H](CC(C)C)C(=O)N[C@@H](CC(C)C)C(=O)N[C@@H](CC(N)=O)C(=O)N[C@H](C(N)=O)[C@@H](C)O)C(C)C [Peptide 11] (H-HSQGTFTSDYSKYLDSRRAHDFVQWLLNT-NH2)
–	–	–	0.023 ± 0.004 nM	CCCCCCCCCCCCCCCC(=O)N[C@@H](CCC(=O)N[C@@H](CCC(=O)NCCCC[C@H](NC(=O)[C@H](CC(=O)O)NC(=O)[C@H](CO)NC(=O)[C@@H](NC(=O)[C@H](Cc1ccccc1)NC(=O)[C@@H](NC(=O)CNC(=O)[C@H](CCC(N)=O)NC(=O)[C@@H](CO)NC(=O)[C@@H](N)Cc1c[nH]cn1)[C@@H](C)O)[C@@H](C)O)C(=O)N[C@@H](CO)C(=O)N[C@@H](CCCCN)C(=O)N[C@@H](Cc1ccc(O)cc1)C(=O)N[C@@H](CC(C)C)C(=O)N[C@@H](CC(=O)O)C(=O)N[C@@H](CO)C(=O)N[C@@H](CCCNC(=N)N)C(=O)N[C@@H](CCCNC(=N)N)C(=O)N[C@@H](C)C(=O)N[C@@H](Cc1c[nH]cn1)C(=O)N[C@@H](CC(=O)O)C(=O)N[C@@H](Cc1ccccc1)C(=O)N[C@H](C(=O)N[C@@H](CCC(N)=O)C(=O)N[C@@H](Cc1c[nH]c2ccccc12)C(=O)N[C@@H](CC(C)C)C(=O)N[C@@H](CC(C)C)C(=O)N[C@@H](CC(N)=O)C(=O)N[C@H](C(N)=O)[C@@H](C)O)C(C)C)C(=O)O)C(=O)O [Peptide 36]
–	2.6 ± 3.68 nM	–	–	CC[C@H](C)[C@H](N)C(=O)N[C@@H](CC(N)=O)C(=O)N[C@@H](Cc1c[nH]cn1)C(=O)N[C@@H](CCC(=O)O)C(=O)N[C@@H](CCC(N)=O)C(=O)N[C@@H](Cc1c[nH]c2ccccc12)C(=O)N[C@@H](C)C(=O)N[C@@H](Cc1ccccc1)C(=O)N[C@H](C(=O)N[C@@H](CO)C(=O)N[C@@H](CC(=O)O)C(=O)N[C@@H](Cc1ccc(O)cc1)C(=O)N[C@@H](CO)C(=O)N[C@@H](CCCCN)C(=O)N[C@@H](Cc1ccc(O)cc1)C(=O)N[C@@H](CC(C)C)C(=O)N[C@@H](CC(=O)O)C(=O)N[C@@H](CO)C(=O)N[C@@H](CCCNC(=N)N)C(=O)N[C@@H](CCCNC(=N)N)C(=O)N[C@@H](C)C(=O)N[C@@H](CCC(N)=O)C(=O)N[C@@H](CC(=O)O)C(=O)N[C@@H](Cc1ccccc1)C(=O)N[C@H](C(=O)N[C@@H](CCC(N)=O)C(=O)N[C@@H](Cc1c[nH]c2ccccc12)C(=O)N[C@@H](CC(C)C)C(=O)N[C@@H](CCSC)C(=O)N[C@@H](CC(N)=O)C(=O)N[C@H](C(N)=O)[C@@H](C)O)C(C)C)[C@@H](C)O [Peptide 14] (H-INHEQWAFTSDYSKYLDSRRAQDFVQWLMNT-NH2)
